# Assay results as given in patent publication US7041470B2, “Method of assaying the susceptibility of biofilms to anti-microbial agents” (University Technologies International, Inc., priority 1996, dated 2006).
# Columns and labels:
# [1] = tested on: staph. aureus planktonic bacteria; test: staph. aureus planktonic bacteria, optical density reading of turbidity; format: cell-based, staphylococcus aureus; settings: 490 nm
# Procedure: (§1) Up to 8 different antibiotics or biocides can be tested by using 1 row (A-H) for each antimicrobial reagent. […] Rinse the remaining projections in PBS using a troughed vessel 20 and place the colonized projections into the 96 well antibiotic plate and incubate overnight at 37° C.
# Escherichia coli biofilm [2] = test: Escherichia coli biofilm, optical density reading of turbidity; format: cell-based; settings: 490 nm
# Procedure: (§2) Up to 8 different antibiotics or biocides can be tested by using 1 row (A-H) for each antimicrobial reagent. […] Rinse the remaining projections in PBS using a troughed vessel 20 and place the colonized projections into the 96 well antibiotic plate and incubate overnight at 37° C. […] (3) From the freshly sonicated plate remove 0.02 ml of the medium from each well and spot plate neat; and 0.025 ml from each well to prepare a serial dilution (10^−1 to 10^−6) and spot plate 0.02 ml (dilutions can be done in microtiter plates, one for each antibiotic). Place the plate containing the remaining medium and bacteria to incubate at 37° C., overnight. Day 4: Assay the sessile survival, by for example reading the plate incubated overnight at 490 nm or by counting the colonies on the plates to determine the actual number of surviving bacteria, or by using some other method known in the art.
# [3] = tested on: Escherichia coli planktonic bacteria; test: Escherichia coli planktonic bacteria, optical density reading of turbidity; format: cell-based; settings: 490 nm
# Procedure: as §1
# [4] = tested on: staphylococcus epidermidis planktonic bacteria; test: staphylococcus epidermidis planktonic bacteria, optical density reading of turbidity; format: cell-based; settings: 490 nm
# Procedure: as §1
# [5] = tested on: staphylococcus epidermidis biofilm; test: staphylococcus epidermidis biofilm, optical density reading of turbidity; format: cell-based; settings: 490 nm
# Procedure: as §2
# [6] = tested on: staphylococcus aureus biofilm; test: staphylococcus aureus biofilm on projections, antibiotic treatment, manual cfu count; format: cell-based
# Procedure: (§3) Up to 8 different antibiotics or biocides can be tested by using 1 row (A-H) for each antimicrobial reagent. […] Rinse the remaining projections in PBS using a troughed vessel 20 and place the colonized projections into the 96 well antibiotic plate and incubate overnight at 37° C. […] (3) From the freshly sonicated plate remove 0.02 ml of the medium from each well and spot plate neat; and 0.025 ml from each well to prepare a serial dilution (10^-1 to 10^-6) and spot plate 0.02 ml (dilutions can be done in microtiter plates, one for each antibiotic). Place the plate containing the remaining medium and bacteria to incubate at 37° C., overnight. Day 4: Assay the sessile survival, by for example reading the plate incubated overnight at 490 nm or by counting the colonies on the plates to determine the actual number of surviving bacteria, or by using some other method known in the art. Several different conventional methods may be used to count the bacteria. It may be done by incubating the sonicated bacteria, taking serial dilutions and visually counting the colony forming units, or automated methods may be used, as for example using an optical reader to determine optical density. […] In the case of using vital dye technology, the biofilm need not be further incubated. In a further embodiment, the assay may be carried out by sonicating the cells until they lyse and release ATP and then adding luciferase to produce a mechanically readable light output. In a still further embodiment, the assay may be carried out directly on the biofilm on the projections using a confocal microscope, although it should be considered that this is difficult to automate. […] Examples are given to show a comparison between counts of planktonic bacteria and counts of sessile bacteria for the same growth conditions. […] The antibiotic was applied to the wells 2-12 of the rows A-G of a 96 well plate as follows: well 2: no antibiotic, well 3: 1000 μg/mL, well 4: 500 μg/mL . . . well 12: 2 μg/mL.
# staph. aureus biofilm = test: staph. aureus biofilm, optical density reading of turbidity; format: cell-based, staphylococcus aureus; settings: 490 nm
# Procedure: as §2
# Escherichia coli biofilm [7] = test: Escherichia coli biofilm on projections, antibiotic treatment, manual cfu count; format: cell-based
# Procedure: as §3, with “(10^−1” for “(10^-1”, “10^−6)” for “10^-6)”, “The initial biofilm was colonized for four hours. The” for “The”, “A-H” for “A-G”, “μg/mL. 250 μL final volume of diluted antibiotic was applied to the wells.” for “μg/mL.”
# [8] = well 5 of doubling dilutions, well 3: 1000 μg/mL to well 12: 2 μg/mL
# [9] = well 6 of doubling dilutions, well 3: 1000 μg/mL to well 12: 2 μg/mL ([…] implied)
# [10] = well 7 of doubling dilutions, well 3: 1000 μg/mL to well 12: 2 μg/mL
# [11] = well 8 of doubling dilutions, well 3: 1000 μg/mL to well 12: 2 μg/mL
# [12] = well 9 of doubling dilutions, well 3: 1000 μg/mL to well 12: 2 μg/mL
# [13] = well 10 of doubling dilutions, well 3: 1000 μg/mL to well 12: 2 μg/mL ([…] implied)
# [14] = well 11 of doubling dilutions, well 3: 1000 μg/mL to well 12: 2 μg/mL
# [15] = well 3: 1000 μg/mL antibiotic, biofilm colonized four hours
# [16] = well 4: 500 μg/mL antibiotic, biofilm colonized four hours
compound,measurement,setting,value
"CC(C)(O/N=C(\C(=O)N[C@@H]1C(=O)N2C(C(=O)[O-])=C(C[n+]3ccccc3)CS[C@H]12)c1csc(N)n1)C(=O)O [F, ceftazidine]","optical density reading of turbidity, staph. aureus planktonic bacteria",[1]; well 3: 1000 μg/mL antibiotic,.073
same,"optical density reading of turbidity, staph. aureus planktonic bacteria",[1]; well 4: 500 μg/mL antibiotic,.076
same,"optical density reading of turbidity, staph. aureus planktonic bacteria",[1]; [8],.081
same,"optical density reading of turbidity, staph. aureus planktonic bacteria",[1]; [9],.079
same,"optical density reading of turbidity, staph. aureus planktonic bacteria",[1]; [10],.076
same,"optical density reading of turbidity, staph. aureus planktonic bacteria",[1]; [11],.079
same,"optical density reading of turbidity, staph. aureus planktonic bacteria",[1]; [12],.078
same,"optical density reading of turbidity, staph. aureus planktonic bacteria",[1]; [13],.111
same,"optical density reading of turbidity, staph. aureus planktonic bacteria",[1]; [14],.564
same,"optical density reading of turbidity, staph. aureus planktonic bacteria",[1]; well 12: 2 μg/mL antibiotic,.717
same,"optical density reading of turbidity, Escherichia coli biofilm",Escherichia coli biofilm [2]; well 3: 1000 μg/mL antibiotic,.121
same,"optical density reading of turbidity, Escherichia coli biofilm",Escherichia coli biofilm [2]; well 4: 500 μg/mL antibiotic,.123
same,"optical density reading of turbidity, Escherichia coli biofilm",Escherichia coli biofilm [2]; [8],1.158
same,"optical density reading of turbidity, Escherichia coli biofilm",Escherichia coli biofilm [2]; [9],.121
same,"optical density reading of turbidity, Escherichia coli biofilm",Escherichia coli biofilm [2]; [11],.120
same,"optical density reading of turbidity, Escherichia coli biofilm",Escherichia coli biofilm [2]; [12],.123
same,"optical density reading of turbidity, Escherichia coli biofilm",Escherichia coli biofilm [2]; [13],1.152
same,"optical density reading of turbidity, Escherichia coli biofilm",Escherichia coli biofilm [2]; [14],1.249
same,"optical density reading of turbidity, Escherichia coli biofilm",Escherichia coli biofilm [2]; well 12: 2 μg/mL antibiotic,1.268
same,"optical density reading of turbidity, Escherichia coli planktonic bacteria",[3]; well 3: 1000 μg/mL antibiotic,.123
same,"optical density reading of turbidity, Escherichia coli planktonic bacteria",[3]; well 4: 500 μg/mL antibiotic,.129
same,"optical density reading of turbidity, Escherichia coli planktonic bacteria",[3]; [8],.134
same,"optical density reading of turbidity, Escherichia coli planktonic bacteria",[3]; [9],.137
same,"optical density reading of turbidity, Escherichia coli planktonic bacteria",[3]; [10],.128
same,"optical density reading of turbidity, Escherichia coli planktonic bacteria",[3]; [11],.137
same,"optical density reading of turbidity, Escherichia coli planktonic bacteria",[3]; [12],.137
same,"optical density reading of turbidity, Escherichia coli planktonic bacteria",[3]; [13],.140
same,"optical density reading of turbidity, Escherichia coli planktonic bacteria",[3]; [14],.147
same,"optical density reading of turbidity, Escherichia coli planktonic bacteria",[3]; well 12: 2 μg/mL antibiotic,.152
same,"optical density reading of turbidity, staphylococcus epidermidis planktonic bacteria",[4]; well 3: 1000 μg/mL antibiotic,.359
same,"optical density reading of turbidity, staphylococcus epidermidis planktonic bacteria",[4]; well 4: 500 μg/mL antibiotic,.383
same,"optical density reading of turbidity, staphylococcus epidermidis planktonic bacteria",[4]; [8],.397
same,"optical density reading of turbidity, staphylococcus epidermidis planktonic bacteria",[4]; [9],.410
same,"optical density reading of turbidity, staphylococcus epidermidis planktonic bacteria",[4]; [10],.466
same,"optical density reading of turbidity, staphylococcus epidermidis planktonic bacteria",[4]; [11],.540
same,"optical density reading of turbidity, staphylococcus epidermidis planktonic bacteria",[4]; [12],.615
same,"optical density reading of turbidity, staphylococcus epidermidis planktonic bacteria",[4]; [13],.627
same,"optical density reading of turbidity, staphylococcus epidermidis planktonic bacteria",[4]; [14],.694
same,"optical density reading of turbidity, staphylococcus epidermidis planktonic bacteria",[4]; well 12: 2 μg/mL antibiotic,.853
same,"optical density reading of turbidity, staphylococcus epidermidis biofilm",[5]; well 3: 1000 μg/mL antibiotic,.897
same,"optical density reading of turbidity, staphylococcus epidermidis biofilm",[5]; well 4: 500 μg/mL antibiotic,.888
same,"optical density reading of turbidity, staphylococcus epidermidis biofilm",[5]; [8],1.013
same,"optical density reading of turbidity, staphylococcus epidermidis biofilm",[5]; [9],.855
same,"optical density reading of turbidity, staphylococcus epidermidis biofilm",[5]; [10],.992
same,"optical density reading of turbidity, staphylococcus epidermidis biofilm",[5]; [11],.903
same,"optical density reading of turbidity, staphylococcus epidermidis biofilm",[5]; [12],.920
same,"optical density reading of turbidity, staphylococcus epidermidis biofilm",[5]; [13],.850
same,"optical density reading of turbidity, staphylococcus epidermidis biofilm",[5]; [14],.843
same,"optical density reading of turbidity, staphylococcus epidermidis biofilm",[5]; well 12: 2 μg/mL antibiotic,.902
same,"manually counted cfu, staphylococcus aureus biofilm",[6]; well 3: 1000 μg/mL antibiotic,0 cfu
same,"manually counted cfu, staphylococcus aureus biofilm",[6]; well 4: 500 μg/mL antibiotic,1.0 × 10^2 cfu
same,"manually counted cfu, staphylococcus aureus biofilm",[6]; [8],0 cfu
same,"manually counted cfu, staphylococcus aureus biofilm",[6]; [9],1.0 × 10^2 cfu
same,"manually counted cfu, staphylococcus aureus biofilm",[6]; [10],50 cfu
same,"manually counted cfu, staphylococcus aureus biofilm",[6]; [11],0 cfu
same,"manually counted cfu, staphylococcus aureus biofilm",[6]; [12],0 cfu
same,"manually counted cfu, staphylococcus aureus biofilm",[6]; [13],1.0 × 10^5 cfu
same,"manually counted cfu, staphylococcus aureus biofilm",[6]; [14],4.0 × 10^5 cfu
same,"manually counted cfu, staphylococcus aureus biofilm",[6]; well 12: 2 μg/mL antibiotic,9.0 × 10^5 cfu
same,"optical density reading of turbidity, staph. aureus biofilm",staph. aureus biofilm; well 3: 1000 μg/mL antibiotic,.779
same,"optical density reading of turbidity, staph. aureus biofilm",staph. aureus biofilm; well 4: 500 μg/mL antibiotic,.830
same,"optical density reading of turbidity, staph. aureus biofilm",staph. aureus biofilm; [8],.777
same,"optical density reading of turbidity, staph. aureus biofilm",staph. aureus biofilm; [9],.739
same,"optical density reading of turbidity, staph. aureus biofilm",staph. aureus biofilm; [10],.719
same,"optical density reading of turbidity, staph. aureus biofilm",staph. aureus biofilm; [11],.840
same,"optical density reading of turbidity, staph. aureus biofilm",staph. aureus biofilm; [12],.806
same,"optical density reading of turbidity, staph. aureus biofilm",staph. aureus biofilm; [13],.882
same,"optical density reading of turbidity, staph. aureus biofilm",staph. aureus biofilm; [14],.924
same,"optical density reading of turbidity, staph. aureus biofilm",staph. aureus biofilm; well 12: 2 μg/mL antibiotic,.916
same,"manually counted cfu, Escherichia coli biofilm",Escherichia coli biofilm [7]; [15],0 cfu
same,"manually counted cfu, Escherichia coli biofilm",Escherichia coli biofilm [7]; [16],0 cfu
same,"manually counted cfu, Escherichia coli biofilm",Escherichia coli biofilm [7]; [8],0 cfu
same,"manually counted cfu, Escherichia coli biofilm",Escherichia coli biofilm [7]; [9],0 cfu
same,"manually counted cfu, Escherichia coli biofilm",Escherichia coli biofilm [7]; [10],0 cfu
same,"manually counted cfu, Escherichia coli biofilm",Escherichia coli biofilm [7]; [11],0 cfu
same,"manually counted cfu, Escherichia coli biofilm",Escherichia coli biofilm [7]; [12],0 cfu
"O=C(O)c1cn(C2CC2)c2cc(N3CCNCC3)c(F)cc2c1=O [G, Ciprofloxacin]","manually counted cfu, staphylococcus aureus biofilm",[6]; well 3: 1000 μg/mL antibiotic,0 cfu
same,"manually counted cfu, staphylococcus aureus biofilm",[6]; well 4: 500 μg/mL antibiotic,0 cfu
same,"manually counted cfu, staphylococcus aureus biofilm",[6]; [8],0 cfu
same,"manually counted cfu, staphylococcus aureus biofilm",[6]; [9],50 cfu
same,"manually counted cfu, staphylococcus aureus biofilm",[6]; [10],1.0 × 10^2 cfu
same,"manually counted cfu, staphylococcus aureus biofilm",[6]; [11],50 cfu
same,"manually counted cfu, staphylococcus aureus biofilm",[6]; [12],0 cfu
same,"manually counted cfu, staphylococcus aureus biofilm",[6]; [13],0 cfu
same,"manually counted cfu, staphylococcus aureus biofilm",[6]; [14],0 cfu
same,"manually counted cfu, staphylococcus aureus biofilm",[6]; well 12: 2 μg/mL antibiotic,0 cfu
same,"manually counted cfu, Escherichia coli biofilm",Escherichia coli biofilm [7]; [15],0 cfu
same,"manually counted cfu, Escherichia coli biofilm",Escherichia coli biofilm [7]; [16],0 cfu
same,"manually counted cfu, Escherichia coli biofilm",Escherichia coli biofilm [7]; [8],0 cfu
same,"manually counted cfu, Escherichia coli biofilm",Escherichia coli biofilm [7]; [9],0 cfu
same,"manually counted cfu, Escherichia coli biofilm",Escherichia coli biofilm [7]; [10],0 cfu
same,"manually counted cfu, Escherichia coli biofilm",Escherichia coli biofilm [7]; [11],0 cfu
same,"manually counted cfu, Escherichia coli biofilm",Escherichia coli biofilm [7]; [13],0 cfu
same,"manually counted cfu, Escherichia coli biofilm",Escherichia coli biofilm [7]; [14],0 cfu
